From patent publication US20230104936A1, “TRPML MODULATORS” (Casma Therapeutics, Inc., priority 2019, published 2023)

System: TFEB
Assay: TFEB nuclear translocation assay, HeLa wt cells
Type: cell-based
Conditions: 2 hrs compound treatment, Table 1 does not say HeLa wt or TRPML1 KO
How it was run: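 Using 20× epifluorescence of fixed, anti-TFEB-stained HeLa wt cells treated 2 hrs with compound, nuclear versus perinuclear ring intensity was quantified over four fields per well, yielding AC50 values.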

Compound | AC50 (Homo sapiens, HeLa, 2 h) | AC50
C[C@@H]1CC(OC2CCN(c3c(F)cccc3NS(=O)(=O)c3ccc(S(=O)(=O)N(C)C)cc3)CC2)C[C@H](C)O1 (stereo partly drawn) [Compound A-817, N4-[2-(4-{[(2R,6S)-2,6-dimethyloxan-4-yl]oxy}piperidin-1-yl)-3-fluorophenyl]-N1,N1-dimethylbenzene-1,4-disulfonamide] | ≤ 2000 nM | 
CC(C1CCN(c2c(F)cccc2NS(=O)(=O)c2ccc(S(=N)(=O)N(C)C)cc2)CC1)N1C[C@@H](C)O[C@@H](C)C1 (stereo partly drawn) [Compound A-872A, N-(2-(4-(1-((2S,6R)-2,6-dimethylmorpholino)ethyl)piperidin-1-yl)-3-fluorophenyl)-4-(N,N-dimethylsulfamidimidoyl)benzenesulfonamide] | ≤ 2000 nM | 
CC(c1cccc(C#N)c1N1CCC(CN2C[C@@H](C)O[C@@H](C)C2)CC1)S(=O)(=O)c1ccc(S(=O)(=O)N(C)C)cc1 (single isomer, unassigned) [Compound A-845, 4-((1-(3-cyano-2-(4-((2,6-dimethylmorpholino)methyl)piperidin-1-yl)phenyl)ethyl)sulfonyl)-N,N-dimethylbenzenesulfonamide] | 2010 to 8000 nM | 
CN(C)C1CCCC12CCN(c1ccccc1NS(=O)(=O)c1ccc(S(=O)(=O)N(C)C)cc1)CC2 (stereo not drawn) [Compound A-281, N4-{2-[1-(dimethylamino)-8-azaspiro[4.5]decan-8-yl]phenyl}-N1,N1-dimethylbenzene-1,4-disulfonamide] | ≥ 10000 nM | 
Cc1cc(NS(=O)(=O)c2ccc3c(c2)CCC3)c(Cl)c(N2CCOCC2)c1 [Compound A-823, N-[2-chloro-5-methyl-3-(morpholin-4-yl)phenyl]-2,3-dihydro-1H-indene-5-sulfonamide] | ≥ 10000 nM | 
CN(C)S(=O)(=O)c1ccc(NC(=O)c2ccccc2N2CCN(c3ccc(Cl)cc3F)CC2)cc1 [Compound A-9, 2-(4-(4-chloro-2-fluorophenyl)piperazin-1-yl)-N-(4-(N,N-dimethylsulfamoyl)phenyl)benzamide] | ≤ 2000 nM | 
CN(C)S(=O)(=O)c1ccc(S(=O)(=O)Nc2cccc(F)c2N2CCC(CN3C4COCC3C4)CC2)cc1 [Compound A-778, N4-3-fluoro-2-[4-(3-oxa-6-azabicyclo[3.1.1]heptan-6-ylmethyl)piperidin-1-yl]phenyl-N1,N1-dimethylbenzene-1,4-disulfonamide] | ≤ 2000 nM | 
COCC1(C)CCN(c2ccccc2NS(=O)(=O)c2ccc(Br)cc2)CC1 [Compound A-623, 4-bromo-N-{2-[4-(methoxymethyl)-4-methylpiperidin-1-yl]phenyl}benzene-1-sulfonamide] | 2010 to 8000 nM | 
Cc1ccc(S(=O)(=O)N2Cc3cccc(N4CCOCC4)c3C2)cc1 [Compound A-820, 2-(4-methylbenzenesulfonyl)-4-(morpholin-4-yl)-2,3-dihydro-1H-isoindole] | ≥ 10000 nM | 
CC(C)(C)C(=O)N1CCN(c2ccccc2NS(=O)(=O)Cc2cccc(Br)c2)CC1 [Compound A-485, 1-(3-bromophenyl)-N-{2-[4-(2,2-dimethylpropanoyl)piperazin-1-yl]phenyl}methanesulfonamide] | 2010 to 8000 nM | 
Cc1ccc(S(=O)(=O)Nc2ccccc2N2CCN(C(=O)C(=O)c3ccccc3)CC2)cc1 [Compound A-350, 4-methyl-N-{2-[4-(2-oxo-2-phenylacetyl)piperazin-1-yl]phenyl}benzene-1-sulfonamide] | 2010 to 8000 nM | 
C[C@H](c1cccc(F)c1N1CCC(F)(F)CC1)S(=O)(=O)c1ccc(S(=N)(=O)N(C)C)cc1 (single isomer, unassigned) [Compound A-891] |  | ≥ 10000 nM
O=S(=O)(Nc1cc(Cl)ccc1N1CCCC12CCCOC2)c1ccc2c(c1)CCC2 (stereo not drawn) [Compound A-405, N-(5-chloro-2-{7-oxa-1-azaspiro[4.5]decan-1-yl}phenyl)-2,3-dihydro-1H-indene-5-sulfonamide] | 2010 to 8000 nM | 
CC(c1cccc(F)c1N1CCC(CN2C[C@@H](C)O[C@@H](C)C2)CC1)S(=O)(=O)c1ccc2c(c1)CCC2 (single isomer, unassigned) [Compound A-828] | ≤ 2000 nM | 
CN(C)S(=O)(=O)c1ccc(S(=O)(=O)Nc2cccc(F)c2N2CCC(N)(C(F)(F)F)CC2)cc1 [Compound A-821, N4-{2-[4-amino-4-(trifluoromethyl)piperidin-1-yl]-3-fluorophenyl}-N1,N1-dimethylbenzene-1,4-disulfonamide] | ≤ 2000 nM | 
O=S(=O)(Nc1ccccc1N1CCC(c2ccc(Cl)cc2F)CC1)c1ccc(C(O)C(F)(F)F)cc1 (stereo not drawn) [Compound A-157, N-{2-[4-(4-chloro-2-fluorophenyl)piperidin-1-yl]phenyl}-4-(2,2,2-trifluoro-1-hydroxyethyl)benzene-1-sulfonamide] | ≤ 2000 nM | 
C[C@@H]1COC[C@@H](C)N1CC1CN(c2c(F)cccc2NS(=O)(=O)c2ccc(S(=O)(=O)N(C)C)cc2)C1 (stereo in doubt) [Compound A-873, N1-(2-(3-((3,5-dimethylmorpholino)methyl)azetidin-1-yl)-3-fluorophenyl)-N4,N4-dimethylbenzene-1,4-disulfonamide] | ≥ 10000 nM | 

Compound | AC50 (Homo sapiens, HeLa, 2 h) | AC50
COCS(=O)(=O)c1ccc(S(=O)(=O)Nc2ccccc2N2CCC(c3c(F)cccc3F)CC2)cc1 [Compound A-207, N-{2-[4-(2,6-difluorophenyl)piperidin-1-yl]phenyl}-4-methoxymethanesulfonylbenzene-1-sulfonamide] | ≤ 2000 nM | 
CN1CC2(CCN(c3ccccc3NS(=O)(=O)c3ccc(S(=O)(=O)N(C)C)cc3)CC2)c2ncc(Cl)cc21 [Compound A-268, N4-(2-{6′-chloro-1′-methyl-1′,2′-dihydrospiro[piperidine-4,3′-pyrrolo[3,2-b]pyridin]-1-yl}phenyl)-N1,N1-dimethylbenzene-1,4-disulfonamide] | ≤ 2000 nM | 
CC(c1cccc(F)c1N1CCC(CN2C3COCC2C3)CC1)S(=O)(=O)c1ccc(S(=O)(=O)N(C)C)cc1 (stereo not drawn) [Compound A-860, 4-(1-{3-fluoro-2-[4-({3-oxa-6-azabicyclo[3.1.1]heptan-6-yl}methyl)piperidin-1-yl]phenyl}ethanesulfonyl)-N,N-dimethylbenzene-1-sulfonamide] |  | 2010 to 8000 nM
CNS(=O)(=O)c1ccc(S(=O)(=O)Nc2ccccc2N2CCC(c3ccc(Cl)cc3F)CC2)cc1 [Compound A-424, N1-{2-[4-(4-chloro-2-fluorophenyl)piperidin-1-yl]phenyl}-N4-methylbenzene-1,4-disulfonamide] | 2010 to 8000 nM | 
C[C@H]1COC[C@H](C)N1CC1CN(c2c(F)cccc2NS(=O)(=O)c2ccc(S(=O)(=O)N(C)C)cc2)C1 (stereo in doubt) [Compound A-916, rel-N4-[2-(3-{[(3R,5R)-3,5-dimethylmorpholin-4-yl]methyl}azetidin-1-yl)-3-fluorophenyl]-N1,N1-dimethylbenzene-1,4-disulfonamide] | ≥ 10000 nM | 
COCCCC1CCN(c2ccccc2NS(=O)(=O)c2ccc(S(=O)(=O)N(C)C)cc2)CC1 [Compound A-496, N4-{2-[4-(3-methoxypropyl)piperidin-1-yl]phenyl}-N1,N1-dimethylbenzene-1,4-disulfonamide] | ≤ 2000 nM | 
COC(C)(C)c1ccc(S(=O)(=O)Nc2ccccc2N2CCC3(CC2)COC(C)(C)C3)cc1 [Compound A-656, N-(2-{3,3-dimethyl-2-oxa-8-azaspiro[4.5]decan-8-yl}phenyl)-4-(2-methoxypropan-2-yl)benzene-1-sulfonamide] | 2010 to 8000 nM | 
COCC1(C)CCN(c2ccccc2NS(=O)(=O)Cc2cccc3c2COC3)CC1 [Compound A-607, 1-(1,3-dihydro-2-benzofuran-4-yl)-N-{2-[4-(methoxymethyl)-4-methylpiperidin-1-yl]phenyl}methanesulfonamide] | 2010 to 8000 nM | 
COC(C)(C)c1cccc(S(=O)(=O)Nc2ccccc2N2CCC3(CC2)COC(C)(C)C3)c1 [Compound A-634, N-(2-{3,3-dimethyl-2-oxa-8-azaspiro[4.5]decan-8-yl}phenyl)-3-(2-methoxypropan-2-yl)benzene-1-sulfonamide] | 2010 to 8000 nM | 
COc1ccc(CN2C(=O)C(c3ccc(Cl)cc3F)Oc3ccccc32)cc1 (stereo not drawn) [Compound A-371, 2-(4-chloro-2-fluorophenyl)-4-(4-methoxybenzyl)-2H-benzo[b][1,4]oxazin-3(4H)-one] | ≤ 2000 nM | 
C[C@H](c1cccc(F)c1N1CCC(C2(N3CCOCC3)CC2)CC1)S(=O)(=O)c1ccc(S(=N)(=O)N(C)C)cc1 (single isomer, unassigned) [Compound A-892] | 8010 to 9990 nM | 
CN1CC2(CCC(c3ccccc3NS(=O)(=O)c3ccc(S(=O)(=O)N(C)C)cc3)CC2)c2ccc(F)cc21 (stereo not drawn) [Compound A-305, N1-(2-(6′-fluoro-1′-methylspiro[cyclohexane-1,3′-indolin]-4-yl)phenyl)-N4,N4-dimethylbenzene-1,4-disulfonamide] | 2010 to 8000 nM | 
CN(C)S(=O)(=O)c1ccc(S(=O)(=O)Nc2ccccc2N2CCC(C3(O)CC3)CC2)cc1 [Compound A-433, N4-{2-[4-(1-hydroxycyclopropyl)piperidin-1-yl]phenyl}-N1,N1-dimethylbenzene-1,4-disulfonamide] | 2010 to 8000 nM | 
CN(C)S(=O)(=O)c1ccc(S(=O)(=O)Nc2ccccc2N2CCN(C3CCCOC3)CC2)cc1 (stereo not drawn) [Compound A-450, N1,N1-dimethyl-N4-{2-[4-(oxan-3-yl)piperazin-1-yl]phenyl}benzene-1,4-disulfonamide] | 8010 to 9990 nM | 
CC(c1cccc(F)c1N1CCCCC1)S(=O)(=O)c1ccc(S(=N)(=O)C(F)F)cc1 (single isomer, unassigned) [Compound A-940, (difluoromethyl)(4-((1-(3-fluoro-2-(piperidin-1-yl)phenyl)ethyl)sulfonyl)phenyl)(imino)-l6-sulfanone] |  | ≤ 2000 nM
CN(C)S(=O)(=O)c1ccc(S(=O)(=O)Nc2ccccc2N2CCC3(CC2)OCc2cc(F)ccc23)cc1 [Compound A-258, N4-(2-{5-fluoro-3H-spiro[2-benzofuran-1,4′-piperidin]-1′-yl}phenyl)-N1,N1-dimethylbenzene-1,4-disulfonamide] | ≤ 2000 nM | 
